Measurements: publication PMC5793714, “Functional implications of corticosteroid-binding globulin N-glycosylation” (Journal of Molecular Endocrinology, 2017)

How the values were obtained:
rat CBG = molecular target: T1, rat CBG (Rattus norvegicus, UniProt P31211); test: saturation binding, dextran-coated charcoal, Scatchard
T1 construct: gene Serpina6; full-length cDNA in pcDNA3, secreted mature N-glycosylated protein from stably transfected CHO-S cells (also Lec1 and Lec2 lines), FPLC semi-purified or concentrated medium; no tag told
T1 sequence (P31211 23-396): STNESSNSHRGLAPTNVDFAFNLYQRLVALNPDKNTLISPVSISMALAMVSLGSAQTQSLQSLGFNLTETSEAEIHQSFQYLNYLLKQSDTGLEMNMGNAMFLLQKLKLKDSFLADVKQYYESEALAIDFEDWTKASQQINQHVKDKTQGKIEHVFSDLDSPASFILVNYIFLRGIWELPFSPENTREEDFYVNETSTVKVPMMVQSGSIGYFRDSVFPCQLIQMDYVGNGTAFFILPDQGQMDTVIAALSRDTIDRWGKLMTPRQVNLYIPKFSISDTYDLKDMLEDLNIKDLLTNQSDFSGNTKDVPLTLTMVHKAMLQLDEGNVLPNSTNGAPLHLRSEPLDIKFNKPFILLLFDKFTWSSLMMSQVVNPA

[1] = molecular target: T2, human CBG (corticosteroid-binding globulin, SERPINA6) (Homo sapiens, UniProt P08185); test: as above
T2 construct: full-length cDNA in pRc/CMV, secreted mature N-glycosylated protein from stably transfected CHO-S cells (also Lec1 and Lec2 lines), semi-purified by HiTrap QFF FPLC or concentrated medium; no tag told
T2 sequence (P08185 23-405): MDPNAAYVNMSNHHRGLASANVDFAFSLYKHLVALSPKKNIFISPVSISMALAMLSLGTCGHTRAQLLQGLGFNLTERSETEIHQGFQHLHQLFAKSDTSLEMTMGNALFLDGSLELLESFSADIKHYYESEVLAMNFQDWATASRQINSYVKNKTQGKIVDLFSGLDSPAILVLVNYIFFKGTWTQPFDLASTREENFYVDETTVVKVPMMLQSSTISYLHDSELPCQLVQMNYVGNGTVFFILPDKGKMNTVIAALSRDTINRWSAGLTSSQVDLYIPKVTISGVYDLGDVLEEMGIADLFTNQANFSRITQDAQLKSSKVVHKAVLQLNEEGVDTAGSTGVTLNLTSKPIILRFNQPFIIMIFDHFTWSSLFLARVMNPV

For C[C@]12C[C@H](O)[C@H]3[C@@H](CCC4=CC(=O)CC[C@@]43C)[C@@H]1CC[C@@H]2C(=O)CO [corticosterone], the Kd (rat CBG) was 2.1 nM.
With C[C@]12CCC(=O)C=C1CC[C@@H]1[C@@H]2[C@@H](O)C[C@@]2(C)[C@H]1CC[C@]2(O)C(=O)CO [cortisol] the Kd [1] was 1.1 nM.
